# Source: US5543410A, “Pharmacological use of phthaloylhydrazide derivatives; combination and application thereof” (L.I.M.A.D. Limited, priority 1993, dated 1996)
# Like-named read-outs stand apart in the source and are kept apart here.
# Experiments:
# [1] = tested on: proctitis attributable to radiation therapy
# Excerpt: B., a patient who was […], complained of burning sensations in the anus, along with frequent and painful urination, after having received radiation therapy for a period of forty-five days. During a rectosigmoidoscopy examination, intense edema and contact hemorrhaging within the rectal mucosae were observed above the tumor. The diagnosis was: proctitis and cystitis arising from radiation therapy. On account of a lack of specific therapeutic measures, the drug was prescribed for the patient according to a dose of 100 mg per day.
# [2] = in vivo
# [3] = tested on: perineal cutaneous melanoma
# Procedure: Localized excision of the tumor was performed, and the group of lymph nodes in the left inguinal region was removed.
# This phenomenon was indicative of the onset of recurrence of the tumor. Intramuscular administration of the drug in 100 mg doses was provided on alternating days.
# Beginning on the twentieth day, the drug was administered in 100 mg intramuscular doses every day.
# [4] = tested on: piglets affected by dysentery; experiment: dysentery in piglets; type: in vivo
# Procedure: Experiments were performed with piglets weighing from 30 to 40 kgs, which were affected by dysentery.
# Nevertheless, symptoms reappeared six to seven hours later in one group of animals. This factor rendered repeated administration of the drug necessary.
# [5] = tested on: Salmonella typhinurium endotoxin
# Procedure: These experiments were performed upon rabbits. Salmonella typhinurium endotoxin which had been purified by Bolvin's method was used in doses of 1 mg/kg according to body weight.
# During the second series of experiments, the drug was administered intravenously in doses of 15 mg/kg according to body weight when clinical manifestations appeared (thirty to forty minutes after the commencement of the experiment). […] During the third series of experiments, the drug was administered five minutes after endotoxin inoculation.
# [6] = tested on: tumor necrosis factor (TNF)
# [7] = tested on: mice exposed to carbon tetrachloride; settings: 10 to 20 mg/kg; control group 65 percent
# erysipelas = experiment: erysipelas
# Procedure: During the patient's hospitalization, their condition was determined to be of moderate severity. […] This area was painful and warm when it was palpated. General loss of strength and a higher body temperature, up to 38.6° C., were also observed.
# The respective compound was applied to the affected area of the patient's skin in the form of a 1 percent ointment. Suppositories containing 100 mg of the drug were prescribed at the same time.
# Subsequently, the patient was treated with the drug in the form of suppositories for five days.
# Objective indications included: a congested segment of skin on the front surface of the leg; this area protruded from the surface and it was painful when palpated. Body temperature: 37.8° C. The patient was experiencing generally disagreeable sensations, and intense pain in the vicinity of the inflamed area.
# A 4 percent solution of the drug within a 20 percent DMSO solution was applied to the affected cutaneous area.
# viral hepatitis B = tested on: viral hepatitis B
# Procedure: Rectal suppositories containing the drug, which was to be administered in doses of 100 mg per day for ten days, were prescribed for this patient.
# [8] = tested on: abortion induced by Salmonella typhinurium endotoxin; settings: 15 mg/kg; abortions in eighty percent without drug
# [9] = passage through living membranes / microbial membranes
# [10] = tested on: TA 100, TA 102, and TA 97 S. typhi strains; experiment: Ames' bacterial mutagenicity test; settings: 0.01 mg/ml to 2 mg/ml, rat liver microsome activation
# [11] = tested on: suppuration and abscesses affecting the jaw; settings: one day after
# Procedure: The patients were subdivided into three groups according to alphabetical order. The drug was prescribed for every patient on one occasion, although different dosages were adopted (1 mg/kg; 2 mg/kg; 4 mg/kg).
# metabolic products = type: in vivo; settings: in vivo; read-out: fraction of compound decomposed into 5-aminophthalic acid, oxygen, and nitrogen
# neutrophils = settings: in vivo (whole blood), NST test
# [12] = tested on: chronic inflammation of female genitalia; settings: 100 mg once each day
# Procedure: The drug was administered to these patients in the form of rectal suppositories (to be inserted at night), in doses of 100 mg once each day, for a five-day period. Subsequently, vaginal insertion was performed for an additional period of two days.
# [13] = 100 mg suppositories morning and evening
# [14] = 100 mg intramuscular on alternating days
# [15] = 15 mg/kg intravenous, when clinical manifestations appeared
# [16] = 1 percent ointment plus 100 mg suppositories
# [17] = 100 mg per day rectal suppositories
# Excerpt for autoimmune diseases: Nevertheless, repeated administration of the drug is required in order to accomplish this objective.
compound,measurement,setting,value
Nc1cccc2c(=O)[nH][nH]c(=O)c12,clinical effect,"[1]; 100 mg per day, three days",absence of any significant clinical effect
same,time to decrease of anal burning and painful urination,[1]; [13],one
same,time until pain and burning no longer present,[1]; [13],third
same,time to normal urination,[1]; after the dosage was increased,fifth
same,rectosigmoidoscopy finding,[1]; ten days later,regeneration of the capillary network within the rectal mucosae was observed
same,CL renal,[2],50 to 80 mL/min
same,infiltration in the region of the postoperative scar,"[3]; 100 mg intramuscular every day, checkup thirty days later",disappearance of infiltration in the region of the postoperative scar was observed
same,abnormal salivation,[3]; [14],"On the third day after the commencement of treatment, abnormal salivation began"
same,vomiting and diuresis,[3]; [14],"vomiting occurred on the fourth day, along with an increase in diuresis"
same,"cessation of symptoms (salivation, vomiting, diuresis)",[3]; in vivo,gradually ceased on the thirteenth and fourteenth days
same,effectiveness in alleviating diarrhea,"[4]; 50 mg/kg, fourth series",limited effectiveness in alleviating diarrhea
same,therapeutic effect,"[4]; 10, 25, and 50 mg/kg, third series",relatively insignificant
same,reappearance of dysentery symptoms,"[4]; 20 and 50 mg/kg, second series",symptoms of dysentery reappeared at the end of the first day
same,instances with therapeutic effects,"[4]; 20 and 50 mg/kg, sixteen animals, second series",six
same,diarrhea,[5]; [15],diarrhea ceased completely
same,time to reduction of intoxication symptoms,[5]; [15],five to ten
same,alleviation of intoxication symptoms and diarrhea,[5]; 25 mg/kg,complete alleviation of intoxication symptoms and diarrhea
same,intoxication symptoms (conclusion),[5]; 15 to 25 mg/kg,prevent or eliminate intoxication symptoms
same,alleviation of symptoms,"[5]; drug five minutes after endotoxin, third series",partial alleviation of symptoms
same,action of TNF in mutated cells,[6],intensifies the action of the tumor necrosis factor (TNF) in mutated cells
same,mortality rate,[7],14%
same,time until congestion and edema had diminished,erysipelas; [16],twenty-four
same,time until pain became less intense,erysipelas; [16],five to six
same,difficulties,erysipelas; by the end of the sixth day,the patient no longer cited difficulties
same,expansion of malignant tumors,malignant tumors; increasing doses and frequency,ensures inhibition of the expansion of malignant tumors
same,tumor dimensions and general condition,malignant tumors; three patients,favorable results represented by reduction of the dimensions of tumors and by an improvement in their general condition
same,effect in combination with radiation therapy,malignant tumors; total dose of 60 to 90 g,the effect upon its action is intensified
same,patients in whom subsequent development of pathological processes was prevented,autoimmune diseases; after an initial phase of treatment,90%
same,principal symptoms,"autoimmune diseases; suppositories, intravenous or intramuscular, repeated",allows alleviation of the principal symptoms of these diseases
same,"time to improvement (lethargy, pain disappeared)",viral hepatitis B; [17],third
same,time to normal biochemical blood data,viral hepatitis B; [17],tenth
same,chronic development of the process,viral hepatitis B; six subsequent months,absence of chronic development of the process
same,bile pigments reaction,viral hepatitis B; tenth day,negative
same,ultrasound examination of liver,viral hepatitis B; tenth day,No pathological conditions affecting the liver were observed
same,symptoms and hepatic functions,"viral hepatitis B; volunteers, 2 to 5 mg/kg per day, initial phase of chronic stage",symptoms were eliminated and previously impaired hepatic functions were restored
same,abortion prevented,[8],seven
same,erythema at the site of administration,guinea pigs; even large doses,Erythema was not encountered
same,indications of allergies,guinea pigs; subcutaneous or oral administration,no indications of allergies were observed
same,passage through the hydrophobic phase of living membranes,[9],easily passing through the hydrophobic phase of living membranes
same,inhibitory or mutagenic activity,[10],did not possess inhibitory or mutagenic activity
same,therapeutic effect,[11]; 1 mg/kg,no therapeutic effect had occurred
same,patients with therapeutic effect,[11]; 2 mg/kg,four
same,patients with therapeutic effect,"[11]; 4 mg/kg, each of the six patients",six
same,metabolised,metabolic products,> 90%
same,rate at which superoxide radicals formed,neutrophils,an increase in the rate at which superoxide radicals formed
same,time to healing,[12],eighth
same,time until vaginal secretions ceased completely,[12],fifth
same,therapeutic effect,[12]; second day,the therapeutic effect was observable
